Experimental data published in patent publication US8716302B2, “Compounds for inducing cellular apoptosis” (Queen Mary & Westfield College, priority 2009, dated 2014).
Values joined by “and” are separate entries in the source; they are usually repeats but may differ in a detail not shown here. Equal values may be shown once. Read-outs that look alike come from different tables or passages of the source.

Key:
[1] = system: DoHH2 (lymphoma) cell line; experiment: DiOC6(3) flow evaluation of cell viability and apoptosis, DoHH2 (lymphoma) cell line; assay type: cell-based, human; settings: for Percentage Cell Viability: DoHH2 cells, 50 μM; for cytotoxicity at 50 µM / viability at 50 µM: Homo sapiens, DOHH-2, DoHH2 cells
Experimental: DiOC6(3) flow evaluation of cell viability and levels of apoptosis was carried out at 10 and 50 μm concentrations. For each entry in FIG. 1, % apoptosis is on the left and % viable is on the right.
Measurement of Mitochondrial Membrane Potential depolarisation and mitochondrial permeability transition (MPT). Cells were incubated for 20 minutes at 37° C. in the dark with the cationic lipophillic (amphipathic) probe 3,3′-dihexyloxacarbocyanine iodide, DiOC6(3) (80 nM), then counter stained for 10 minutes with propidium iodide (20 μg/ml). DiOC6(3) is sequestered within the mitochondrial matrix due to the inner membrane potential (Δψm), according to the Nernst equation, dissipation leading to a reduction in mitochondrial retention and decreased cellular DiOC6(3) fluorescence. Collapse of Δψm was prevented by incubating cells for 30 minutes with 50 μM bongkrekic acid. Events with increased propidium iodide fluorescence were subtracted, by gating, from the DiOC6(3) histograms to eliminate dead cells, with loss of plasma membrane integrity. Dose-response curves used the calculated proportion of DiOC6(3)low, cells as the dependent variable on the ordinate. To measure MPT directly, cells were incubated with 1 μM calcein AM for 30 minutes, followed by 1 mM […] cobalt. Cobalt quenches calcein fluorescence, but cannot traverse an intact inner mitochondrial membrane to enter the mitochondrial matrix, to which calcein equilibrates. Opening of the PTPC allows cobalt to enter, reducing calcein fluorescence.
The Lymphoma cell line (DoHH2) was treated with PK11195 and various compounds of the invention at doses of 10 and 50 μmol concentrations. Levels of cell viability and apoptosis were measured by DiOC6 flow evaluation. DiOC6 is a fluorescent dye which acts as a surrogate marker of mitochondrial depolarisation. Uptake of DiOC6 and consequent fluorescence is a measure of opening of the permeability transition pore complex (PTPC).
The following tables set out % viability and % apoptosis results seen for treatment of DoHH2 cells with certain compounds of the invention at a dosage of 50 μM, in comparison with untreated cells. The assay procedure used was as described above in respect of “Treatment of DoHH 2 (Lymphoma) Cell Line”.

DoHH2 cells = experiment: Superoxide purging with MnTBAP, apoptosis in DoHH2 cells; assay type: cell-based, human; settings: with and without ROS scavenger MnTBAP
Experimental: For each entry in FIG. 2, DAPI viable is on the left and DAPI non viable is on the right.
O^2-• was detected by incubating cells for 15 minutes in 5 μM dihydroethidium, which is oxidized to ethidium. To test the effect of O^2-• […] on O^2-• generation, cells were treated with 100 μM MnTBAP for 45 minutes. Hydrogen peroxide was detected by loading cells for 30 minutes with 5 μM CM-H2DCFDA, and its formation inhibited by preincubation with 500 U/ml catalase for 30 minutes. Dose-response curves for CM-H2DCFDA used the calculated proportion of CM-H2DCFDAhigh cells as the dependent variable.
DoHH2 cells were exposed to AAW-001, AAW-0014 and PK11195 in the presence and absence of the mitochondrial reactive oxygen species (ROS) scavenger MnTBAP.

[2] = system: human lymphoma DoHH2 cell line xenograft; experiment: DoHH2 xenograft NOD/SCID mice; assay type: in vivo; settings: for mice alive at 10 weeks: cohorts of ten mice
Experimental: NOD/SCID mice xenografted with the human lymphoma DoHH2 cell line were treated two weeks post inoculation with the human B cell lymphoma cell line DoHH2. There were three cohorts of ten mice. For two cohorts, treatment consisted of 50 microgram intraperitoneal (IP) doses twice weekly for three weeks of PK11195 or AAW-0014, respectively. The third cohort was treated with 200 microlitres of saline twice weekly over a 3 week period. The mice were then observed for up to six weeks. All of the saline treated mice were dead due to disease at 10 weeks. […] All of the AAW-0014 treated mice were alive at 10 weeks showing less than 20% splenic involvement, including 2 mice with no detectable disease.

[3] = average of repeats, read-out: Percentage Cell Apoptosis, Averages
[4] = average of repeats, read-out: Percentage Cell Viability, Averages
[5] = individual repeats, read-out: Percentage Cell Apoptosis
[6] = 50 microgram IP twice weekly for three weeks
[7] = at 10 weeks, 50 microgram IP twice weekly for three weeks
[8] = individual repeats, read-out: Percentage Cell Viability

Structure (SMILES)	cytotoxicity at 50 µM [1, 3] [%]	viability at 50 µM [1, 4] [%]	cytotoxicity at 50 µM [1, 5] [%]	viability at 50 µM [1, 8] [%]	also measured
CC(C)C(=O)Nc1cc2c(c(-c3ccccc3Cl)c1)CCN(C(=O)C(F)(F)F)C2 [CO-AAW0001, N-[5-(2-chloro-phenyl)-2-(2,2,2-trifluoro-acetyl)-1,2,3,4-tetrahydro-isoquinolin-7-yl]-isobutyramide]	52.8	59.7			Percentage Cell Viability ([1]; individual repeats, listed as 1, 50 µM): 73.8% and 67.7% and 47.9% and 62.5% and 48.0% and 52.8% and 52.9% and 48.5% and 68.4% and 65.4%
CC(C)C(=O)Nc1cc2ccccc2c(-c2ccccc2Cl)n1 [CO-AAW0007]	26.1	76.1			Percentage Cell Viability ([1]; individual repeats, listed as 7, 50 µM): 63.9% and 88.2%
CCC(C)C(=O)Nc1cc2ccccc2c(-c2ccccc2Cl)n1 (centres unmarked) [CO-AAW0008]	39.2	67.9	48.8		Percentage Cell Viability ([1]; individual repeats, listed as 8, 50 µM): 54.1% and 81.7%
CC(C)NC(=O)c1cc2ccccc2c(-c2ccccc2Cl)n1 [CO-AAW0009]	32.4	69.9			Percentage Cell Viability ([1]; individual repeats, listed as 9, 50 µM): 48.8% and 90.5%
CCCCC(=O)Nc1nc2c(c(-c3ccccc3Cl)n1)CN(Cc1ccccc1)CC2 [CO-AAW00014, pentanoic acid [6-benzyl-4-(2-chloro-phenyl)-5,6,7,8-[4,3-d]pyrimidin-2-yl]-amide]	65.5	53.1			Percentage Cell Viability ([1]; individual repeats, listed as 14, 50 µM): 68.8% and 42.3% and 39.4% and 65.8% and 51.8% and 54.3% and 49.6%; ability to induce apoptosis in the presence of MnTBAP (DoHH2 cells): inhibited by MnTBAP; drug related toxicities [2, 6]: No major drug related toxicities were observed; splenic involvement [2, 7]: less than 20%; mice with no detectable disease ([2]; at 10 weeks, of ten mice): 2; mice alive at 10 weeks [2, 6]: All
O=C(Nc1nc2c(c(-c3ccccc3Cl)n1)CN(Cc1ccccc1)CC2)c1cccc(Cl)c1Cl [CO-AAW00016, N-[6-benzyl-4-(2-chlorophenyl)-5H,6H,7H,8H-pyrido[4,3-d]pyrimidin-2-yl]-2,3-dichlorobenzamide]	33.5	77.5	33.4	78.5	Percentage Cell Viability ([1]; individual repeats, listed as 16, 50 µM): 76.5%
CCCC(=O)N1CCc2c(cc([N+](=O)[O-])cc2-c2ccccc2Cl)C1 [CO-AAW00017, 1-[5-(2-chlorophenyl)-7-nitro-1,2,3,4-tetrahydroisoquinolin-2-yl]butan-1-one]	49.2	71.3	43	74.2	Percentage Cell Viability ([1]; individual repeats, listed as 17, 50 µM): 68.4%
CC(C)NC(=O)c1cc2ccccc2c(-c2c(Cl)cccc2Cl)n1 [CO-AAW00018]	24.1	82	25.6	84.8	Percentage Cell Viability ([1]; individual repeats, listed as 18, 50 µM): 79.2%
CNC(=O)c1cc2ccccc2c(-c2ccccc2Cl)n1 [CO-AAW00020]	17.3	75.7	17.1	72.7	Percentage Cell Viability ([1]; individual repeats, listed as 20, 50 µM): 78.7%
CCCCNC(=O)c1cc2ccccc2c(-c2ccccc2Cl)n1 [CO-AAW00022]	65.4	28.4	62.9	37.4	Percentage Cell Viability ([1]; individual repeats, listed as 22, 50 µM): 19.4%
CC(C)C(=O)Nc1cc2c(c(-c3ccccc3Cl)c1)CCN(C(=O)c1ccccc1)C2 [CO-AAW00025, N-[2-Benzoyl-5-(2-chloro-phenyl)-1,2,3,4-tetrahydroisoquinolin-7-yl]2-methylpropanamide]	15.4	67.6	19.7		Percentage Cell Viability ([1]; individual repeats, listed as 25, 50 µM): 56.3% and 78.8%
CCCCC(=O)Nc1cc2c(c(-c3ccccc3Cl)c1)CCN(C(=O)C(F)(F)F)C2 [CO-AAW00030, pentanoic acid [5-(2-chlorophenyl)-2-(2,2,2-trifluoro-acetyl)-1,2,3,4-tetrahydro-isoquinolin-7-yl]amide]	61.2	64.3	61.2	64.3	
CCC(C)N(C)C(=O)c1cc2ccccc2c(-c2ccccc2Cl)n1 (centres unmarked) [PK11195, 1-(2-chlorophenyl)-N-methyl-N-(1-methylpropyl)-3-isoquinolinecarboxamide, reference compound]					disease on splenic assessment on culling [2, 7]: moderate levels of disease; mice alive at 10 weeks [2, 6]: Five of the ten
